These are literature values, as cited in patent publication US8282955B2, “Method for the preparation of a pharmaceutical composition comprising 5-aminosalicylic acid for use in treatment of ulcerative colitis and Crohn's disease” (Ferring B.V., priority 2001, dated 2012).

The conditions of the data set: moisture and light.

Take `Nc1ccc(O)c(C(=O)O)c1` [Batch 5-ASA, 5-aminosalicylic acid]: the Stability result is recorded as “poor stability”.
